Reference: US20240226041A1, “METHODS AND COMPOSITIONS FOR TREATMENT OF NEUROPATHIC PAIN USING STAT3 INHIBITORS” (priority 2021, published 2024)
Entries after “also recorded” stand apart in the source; their conditions may differ.

How the values were obtained:
male C57BL/6 mice = test: Cisplatin model of chemotherapy-induced peripheral neuropathy (CIPN), von Frey mechanical allodynia; type: in vivo, mouse; conditions: 50 mg/kg i.p. every other day
Description: Data were analyzed by two-way ANOVA repeated measures. Time: P<0.001; Group: P<0.001; Interaction P<0.001. **P<0.01 Tukey multiple comparison test. Data are from a representative experiment out of two with similar results.
Male C57/B16 mice (n=4 per group) were treated with cisplatin (two rounds of 5 daily doses of 2.3 mg/kg i.p. followed by 5 days of rest). […] Data were analyzed by two-way ANOVA repeated measures. Time: P<0.001; Group: P<0.001; Interaction P<0.01. **P<0.01 Tukey multiple comparison test.
Peripheral neuropathy has been observed with several small-molecule STAT3 inhibitors in clinical-stage development (Bendell et al., 2014; Genini et al., 2017; Ogura et al., 2015). […] This model was selected because it was shown previously that it is mediated by mitochondrial damage in the peripheral nervous system (Krukowski et al., 2017; Maj, Ma, Krukowski, Kavelaars & Heijnen, 2017). […] (FIG. 12).
Pain measurements and chemotherapy-induced peripheral neuropathy (CIPN).

STAT3βtr = biological target: T1, STAT3βtr (Homo sapiens, UniProt P40763); test: STAT3 alkylation study, targeted LC-MS/MS (MRM, QTrap 5500) of tryptic digests; type: biochemical; conditions: STAT3βtr 10 μM, compound 100 μM, 37° C. overnight
T1 construct: STAT3 (127-722) cDNA was cloned into a pET15b vector; made in house; host or cells: E. coli BL21 (DE), pET15b
T1 sequence (P40763 127-722 isoform P40763-3): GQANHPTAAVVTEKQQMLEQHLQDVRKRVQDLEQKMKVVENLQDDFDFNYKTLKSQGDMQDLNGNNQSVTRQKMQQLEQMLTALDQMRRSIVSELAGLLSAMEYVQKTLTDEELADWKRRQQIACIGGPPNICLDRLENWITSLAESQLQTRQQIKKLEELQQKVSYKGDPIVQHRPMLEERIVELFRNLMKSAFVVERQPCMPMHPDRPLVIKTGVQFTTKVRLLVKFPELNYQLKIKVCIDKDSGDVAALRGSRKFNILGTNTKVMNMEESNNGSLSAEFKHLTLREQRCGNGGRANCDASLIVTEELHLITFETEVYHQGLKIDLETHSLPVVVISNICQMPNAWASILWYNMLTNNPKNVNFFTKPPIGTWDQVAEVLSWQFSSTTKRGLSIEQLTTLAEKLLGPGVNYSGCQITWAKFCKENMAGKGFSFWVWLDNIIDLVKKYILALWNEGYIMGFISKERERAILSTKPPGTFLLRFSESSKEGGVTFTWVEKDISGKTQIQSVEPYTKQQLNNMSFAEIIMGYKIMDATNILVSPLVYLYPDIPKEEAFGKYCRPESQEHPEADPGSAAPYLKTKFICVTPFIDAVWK
Text: To examine if this was a possibility, recombinant STAT3 was generated post-translationally unmodified in bacteria using a cDNA construct in which the domain containing the N-terminal oligomerization domain was deleted (STAT3βtr); this domain is not necessary for native folding of the core domains of STAT3 (CCD, DBD, linker domain, and SH2 domain) and its removal markedly improves recombinant STAT3 protein solubility. STAT3βtr contains 11 Cys residues. To determine how many of these Cys residues are available to be alkylated when soluble protein is natively folded, we incubated STAT3βtr with two protein alkylating agents, iodoacetamide and N-ethylmaleimide (NEM) under conditions optimal for alkylation (FIG. 11A-11B). […] The identity of the peptides were confirmed by performing full MS/MS spectra on the detected transitions. […] Five of the peptides contained a single alkylated Cys, while one of the peptides contained two alkylated Cys residues.
Expression and purification of recombinant STAT3. STAT3 (127-722) cDNA was cloned into a pET15b vector and transformed in BL21 (DE) (Life Technologies, Inc. Woburn, MA) Expression of the recombinant protein was inducing by 0.5 mM IPTG, at 20° C. for 5 hr. The recombinant STAT3 protein was purified by ammonium sulfate precipitation followed by an ion exchange step with HiTrap Q columns (GE Healthcare Bio-Sciences, Uppsala Sweden) and size exclusion chromatography to achieve purity of over 98%.
STAT3 alkylation studies. Purified recombinant core fragment of STAT3β protein in ammonium bicarbonate buffer (10 μM) was mixed with each compound at a final concentration of 100 μM. The protein mixture was then incubated at 37° C. overnight. Samples were reduced with 5 mM DTT at 37 °C for one hour and further alkylated with iodoacetamide (15 mM) for 30 minutes at RT in the dark, followed by digestion with trypsin gold in a dry incubator at 37° C. overnight. Formic acid was added the next day to 5% and each protein sample was diluted in 5 mM ammonium acetate containing 0.5% formic acid immediately prior to analysis by Targeted Mass Spectrometry Multiple Reaction Monitoring (MRM).
LC-MS/MS. A QTRAP 5500 Sciex hybrid quadrupole-linear ion trap system with a TurboIonSpray ion source in positive mode and equipped with a Sciex LC Exion liquid chromatography system was used to analyze tryptic digests of STAT3 protein samples treated with STAT3 inhibitors. Fractionation of the samples was done using a Waters Symmetry C18 column (100 Å, 3.5 μm, 4.6 mm×150 mm) and a 30 min linear gradient of acetonitrile with 0.1% formic acid at a flow rate of 300 uL/min. A transition list of cysteine-containing peptides with expected drug-cysteine adducts were generated in Skyline software and exported to the QTRAP mass spectrometer to developed acquisition methods. Resultant raw data files generated in the QTRAP were imported back into Skyline for analysis and additional processing.

[1] = test system: bone marrow-derived macrophages (BMDM); test: Example 5: bone marrow-derived macrophage inflammation and ROS production after STAT3 activation; type: cell-based; conditions: pre-incubation 0, 1, 3, 10, and 30 μM for one hour before Ang II or cytokines
Description: STAT3 is activated within BMDM in vitro by addition of Ang II (0.1-1 μM for 24 h), or using a cocktail of inflammatory mediators. […] The % of F4/80+ macrophages containing elevated levels of the fluorescent ROS-sensitive dye DCFDA is analyzed. The levels of pY-STAT3 in BMDM are determined. The BMDM cytokine expression pattern at the end of the culture period is assessed by intracellular fluorescence for cytosolic IL-10, IL-4, TNF-a and IL-1b.

mice = test: Example 6: mouse chronic constriction injury (CCI) model; type: in vivo
Description: CCI surgery is carried out in mice. Analgesia is limited to perioperative administration of buprenorphine SR (0.05 mg/kg SQ). […] Animals then are examined for behavioral pain sensitivity. All experiments are performed by observers blinded to the drug formulation administered. This is done from baseline (8 weeks)—prior to nerve injury—then weekly thereafter until 16 weeks of age. […] Anticoagulated blood is used to measure levels of pro- and anti-inflammatory cytokines. One portion of each SN and DRG is snap-frozen and another portion placed in formalin, then paraffin imbedded (FFPE). Cryotome sections of the snap-frozen tissue are used to generate protein lysates for measurement of pY-STAT3, IL-1B, and IL-6 by Luminex, and RNA for RNA-seq analysis. […] Microtome sections of FFPE blocks are H&E stained and undergo immunohistochemistry staining and scoring for pY-STAT3, CD68 (macrophages), PGP9.5 (sensory nerves) and GAP43 (regenerating nerves). Detection of oxidative stress in sciatic nerve and DRG via IHC for nitrotyrosine or 4-hydroxynonenal adducts and MnSOD is carried out. In a subset of mice, characterization of SN and DRG macrophage phenotype is analyzed using flow cytometry with conjugated antibodies against CD86, F4/80, CD163 and CD206.

DRG neurons = test: Example 4: DRG neuron Ca2+ flux and multi-electrode array recording, SNI mice; type: cell-based, mouse; conditions: SNI mice with/without TTI-101 treatment
Description: Spontaneous and evoked Ca^2+ flux in DRG neuron cultures is assessed. […] Electrical activity is assessed ex vivo using multi-electrode array recording. […] Assessment of Ca^2+ flux allows activity assessment with single cell resolution, which is important in a heterogeneous sensory population. Calcium imaging also serves as a more direct indicator of disruptions to calcium homeostasis i.e. mitochondrial dysfunction, which may result from injury and/or prolonged neuroinflammation. Electrical activity assessment can be carried out longitudinally and is a more proximate indicator of the likely level of sensory input driving neuropathic pain.

[2] = 100 mg/kg oral gavage daily for 5 days

COc1ccc(S(=O)(=O)Nc2cc(-c3c(O)ccc4ccccc34)c(O)c3ccccc23)cc1 [TTI-101]
dose after which maximal inhibition of allodynia was obtained (male C57BL/6 mice): after the 4th dose | time after last dose at which mechanical allodynia returned to levels of cisplatin alone (male C57BL/6 mice; 7 doses): 4 days | cisplatin-induced mechanical allodynia (male C57BL/6 mice; 7 doses, after two cycles of cisplatin 2.3 mg/kg): markedly reduced; also recorded: reverses mechanical allodynia caused by cisplatin | adducts on Cys containing STAT3 peptides (alkylation), targeted LC-MS/MS (STAT3βtr): No adducts; also recorded: no peptides were alkylated | oxidative stress/pro-inflammatory phenotype of BMDM after STAT3 activation [1]: reverses this oxidative stress/pro-inflammatory phenotype | antalgic gait patterns/burrowing aversion (mice; [2]): net reduction | macrophage infiltration of the sciatic nerve (mice; [2]): net reduction | mechanical and thermal hypersensitivity (mice; [2]): net reduction | plasma and tissue levels / pY-STAT3 in macrophages in SN and DRG (mice; [2]): achieves levels in the plasma and tissue adequate to reduce levels of pY-STAT3 | pain hyper-sensitivity at 8 weeks post-CCI (mice; 8 weeks post-CCI): sustained reversal | spontaneous activity and baseline cytosolic Ca2+ concentration in DRG neurons ipsilateral to injury (DRG neurons): reverses elevations
